Measured values taken from PMC7367873, “Dissecting the sequence determinants for dephosphorylation by the catalytic subunits of phosphatases PP1 and PP2A” (Nature Communications, 2020).

Tested on: GAB2-pS210
Assay: In vitro dephosphorylation of GAB2-pS210 (Western blot)
Format: biochemical, human
Details: GAB2-pS210 relative to GAB2, Calyculin A 20 nM 12 min in HeLa Kyoto cells, recombinant PP1c 1 µM, 1 h at 30 °C in lysate
Description: pEGFP(C1)-14-3-3β or pCMV-GAB2-3FLAG was transfected into HeLa Kyoto cells as described in the respective section for 24 h. Cells were incubated with or w/o 20 nM Calyculin A (# 9902 S, Cell Signaling Technology) in complete growth media for 12 min. Cells were washed twice on ice with cold PBS and after addition of 500 µL lysis buffer (100 mM NaCl, 10 mM Tris, 0.1% IGEPAL, 1 mM EDTA, 1 mM EGTA, 20 nM Calyculin A, 1x cOmplete Mini protease inhibitor cocktail (Sigma), 2 mM DTT, 2 mM MnCl2) cells were scraped from plates, lysed by 10 pushes through an injection needle and the insoluble fraction was pelleted by centrifugation (10 min, 10^4 rcf, 4 °C). […] Beads were then washed three times with lysis buffer and samples were eluted in 1x SDS sample buffer by heating to 95 °C for 10 min and further analyzed by SDS PAGE for 14-3-3/GAB2 association and phosphorylation status of GAB2-pS210.
For SDS-PAGE, samples were loaded on NuPAGE™ 4-12% Bis-Tris protein gels (Invitrogen) and gel electrophoresis was performed at 180 V constant in 1x MOPS buffer. […] All blots were quantified using raw images and ImageLab software (v6.0.1, BioRad): Files were imported and analyzed without further modifications. […] The quantification was exported from the analysis table and measurements of background adjusted band volumes where used for further normalization steps and graphical depiction. […]

## PP1c: recombinant catalytic subunit of PP1
  p-level of GAB2 pS210: decrease in the p-level
